Measurements: ChEMBL document CHEMBL5512637, “Development of Membrane-Targeting Fluorescent 2-Phenyl-1H-phenanthro[9,10-d]imidazole-Antimicrobial Peptide Mimic Conjugates against Methicillin-Resistant Staphylococcus aureus” (J Med Chem, 2024)
Active and inactive are the calls of the source. The calls are words filed in the database; no cut-off is given here.

Columns and labels:
[1] = Stability in sheep plasma at MBC measured for 6 hrs; format: ADME, cell-free, Ovis aries
Staphylococcus aureus [2] = assay: Antibacterial activity against methicillin-resistant Staphylococcus aureus clinical isolate M-4 incubated for 16 to 18 hrs CLSI based by microbroth dilution assay; format: functional; conditions: time 16-18 hrs
[3] = Toxicity in KM mouse assessed as change in mental health at 5 to 80 mg/kg, sc measured for 24 hrs; format: organism-based; conditions: in vivo, dose 5-80 mg/kg
Staphylococcus aureus [4] = assay: Disruption of cell membrane in methicillin-resistant Staphylococcus aureus clinical isolate M-4 assessed as increase in red fluorescence incubated for 2 hrs by SYTO9/PI staining based flow cytometry; format: functional, organism-based; conditions: dose 4-64 µg/ml
Staphylococcus aureus [5] = assay: Disruption of cell membrane in methicillin-resistant Staphylococcus aureus clinical isolate M-4 assessed as increase in intracellular ROS level incubated for 1 hr by DCFH-DA dye based analysis; format: functional, organism-based; conditions: dose 1-32 µg/ml
Staphylococcus aureus [6] = assay: Bactericidal activity against Staphylococcus aureus ATCC 29213 at 4 to 8 times MIC by time kill assay; format: functional, organism-based; conditions: TDE = time-dependent effect
Staphylococcus aureus [7] = assay: Bactericidal activity against methicillin-resistant Staphylococcus aureus clinical isolate M-4 by time kill assay; format: functional, organism-based
Staphylococcus aureus [8] = assay: Antibacterial activity against methicillin-resistant Staphylococcus aureus clinical isolate M-5 incubated for 16 to 18 hrs CLSI based by microbroth dilution assay; format: functional; conditions: time 16-18 hrs
[9] = Selectivity index, ratio of HC50 for sheep erythrocytes to MIC for Staphylococcus aureus ATCC 29213; format: toxicity; conditions: read-out: Selectivity Index
Staphylococcus aureus [10] = assay: Antibacterial activity against methicillin-resistant Staphylococcus aureus clinical isolate M-4 infected in KM mouse assessed as decrease in erythema in subcutaneous tissue at 5 to 10 mg/kg, sc measured after 24 hrs by H and E staining based analysis; format: functional, organism-based; conditions: dose 5-10 mg/kg
[11] = Toxicity in KM mouse infected with methicillin-resistant Staphylococcus aureus clinical isolate M-4 assessed as histopathological abnormality in spleen at 5 to 10 mg/kg, sc measured after 24 hrs by H and E staining based analysis; format: organism-based; conditions: in vivo, dose 5-10 mg/kg
[12] = Toxicity in KM mouse assessed as change in urea level at 20 mg/kg, sc measured after 24 hrs; format: organism-based; conditions: in vivo
Staphylococcus aureus [13] = assay: Disruption of cell membrane in methicillin-resistant Staphylococcus aureus clinical isolate M-4 assessed as cell membrane rupture at 8 times MIC incubated for 1 hr by SEM analysis; format: functional, organism-based
Staphylococcus aureus [14] = assay: Antibacterial activity against methicillin-resistant Staphylococcus aureus clinical isolate M-4 infected in KM mouse assessed as decrease in abscesses in subcutaneous tissue at 5 to 10 mg/kg, sc measured after 24 hrs by H and E staining based analysis; format: functional, organism-based; conditions: dose 5-10 mg/kg
Staphylococcus aureus [15] = assay: Induction of resistance development in Staphylococcus aureus ATCC 29213 at MIC measured after 20 passages; format: functional
[16] = Toxicity in KM mouse infected with methicillin-resistant Staphylococcus aureus clinical isolate M-4 assessed as histopathological abnormality in heart at 5 to 10 mg/kg, sc measured after 24 hrs by H and E staining based analysis; format: organism-based; conditions: in vivo, dose 5-10 mg/kg
[17] = Toxicity in KM mouse infected with methicillin-resistant Staphylococcus aureus clinical isolate M-4 assessed as histopathological abnormality in liver at 5 to 10 mg/kg, sc measured after 24 hrs by H and E staining based analysis; format: organism-based; conditions: in vivo, dose 5-10 mg/kg
Staphylococcus aureus [18] = assay: Disruption of cell membrane in methicillin-resistant Staphylococcus aureus clinical isolate M-4 assessed as fold increase in fluorescence intensity at 32 ug/ml measured after 20 mins by DiSC3(5) dye based analysis relative to control; format: functional; conditions: dose 32 µg/ml
[19] = Toxicity in KM mouse infected with methicillin-resistant Staphylococcus aureus clinical isolate M-4 assessed as histopathological abnormality in lungs at 5 to 10 mg/kg, sc measured after 24 hrs by H and E staining based analysis; format: organism-based; conditions: in vivo, dose 5-10 mg/kg
Staphylococcus aureus [20] = assay: Antibacterial activity against methicillin-resistant Staphylococcus aureus clinical isolate M-10 incubated for 16 to 18 hrs CLSI based by microbroth dilution assay; format: functional; conditions: time 16-18 hrs
Staphylococcus aureus [21] = assay: Antibacterial activity against methicillin-resistant Staphylococcus aureus clinical isolate M-4 infected in KM mouse assessed as survival rate of bacteria at 5 mg/kg, sc measured after 24 hrs relative to control; format: functional
[22] = Hemolytic activity in sheep erythrocytes incubated for 1 hr by absorbance based assay; format: toxicity, cell-based, Ovis aries, Erythrocyte
[23] = Toxicity in KM mouse assessed as animal abnormality at 5 to 80 mg/kg, sc measured for 24 hrs; format: organism-based; conditions: in vivo, dose 5-80 mg/kg
Staphylococcus aureus [24] = assay: Bactericidal activity against Staphylococcus aureus ATCC 29213 at 4 times MIC incubated for 2 hrs by time kill assay relative to control; format: functional
Staphylococcus aureus [25] = assay: Antibacterial activity against Staphylococcus aureus ATCC 29213 at 1 ug/ml in absence of exogenous DNA; format: functional, organism-based; conditions: dose 1.0 µg/ml
Staphylococcus aureus [26] = assay: Bactericidal activity against Staphylococcus aureus ATCC 29213 assessed as fold increase in fluorescence intensity at MIC incubated for 180 mins relative to control; format: functional; conditions: 3 h
[27] = Toxicity in KM mouse assessed as histological abnormality in liver at 20 mg/kg, sc measured after 24 hrs by H and E staining based analysis; format: organism-based; conditions: in vivo
Staphylococcus aureus [28] = assay: Antibacterial activity against methicillin-resistant Staphylococcus aureus clinical isolate M-3 incubated for 16 to 18 hrs CLSI based by microbroth dilution assay; format: functional; conditions: time 16-18 hrs
[29] = Toxicity in KM mouse assessed as change in creatinine level at 20 mg/kg, sc measured after 24 hrs; format: organism-based; conditions: in vivo
Staphylococcus aureus [30] = assay: Bactericidal activity against methicillin-resistant Staphylococcus aureus clinical isolate M-4 at 4 times MIC incubated for 6 hrs by time kill assay relative to control; format: functional
Staphylococcus aureus [31] = assay: Antibacterial activity against methicillin-resistant Staphylococcus aureus clinical isolate M-4 upto 128 ug/ml incubated for 16 to 18 hrs in presence of peptidoglycan by broth dilution method; format: functional, organism-based; conditions: dose <= 128.0 µg/ml, time 16-18 hrs
[32] = Toxicity in KM mouse assessed as change in albumin level at 20 mg/kg, sc measured after 24 hrs; format: organism-based; conditions: in vivo
Staphylococcus aureus [33] = assay: Induction of resistance development in Staphylococcus aureus ATCC 29213 assessed as fold increase in MIC at MIC measured after 17 passages relative to control; format: functional
[34] = Toxicity in KM mouse assessed as survival rate at 5 to 80 mg/kg, sc measured for 24 hrs; format: organism-based; conditions: in vivo, dose 5-80 mg/kg
Staphylococcus aureus [35] = assay: Disruption of cell membrane in methicillin-resistant Staphylococcus aureus clinical isolate M-4 assessed as DNA leakage at 1 to 8 times MIC incubated for 4 hrs by microspectrophotometry; format: functional, organism-based
[36] = Toxicity in KM mouse assessed as histological abnormality in spleen at 20 mg/kg, sc measured after 24 hrs by H and E staining based analysis; format: organism-based; conditions: in vivo
Staphylococcus aureus [37] = assay: Disruption of cell membrane in methicillin-resistant Staphylococcus aureus clinical isolate M-4 assessed as increase in red fluorescence at 32 ug/ml incubated for 2 hrs by SYTO9/PI staining based flow cytometry relative to control; format: functional; conditions: dose 32 µg/ml
Staphylococcus aureus [38] = assay: Disruption of cell membrane in methicillin-resistant Staphylococcus aureus clinical isolate M-4 assessed as increase in fluorescence intensity measured for 30 mins by DiSC3(5) dye based analysis; format: functional, organism-based; conditions: dose 8-32 µg/ml
[39] = Binding affinity to phosphatidylglycerol (unknown origin) assessed as dissociation constant by ITC analysis

CCCCCNC(=O)C[N+](C)(C)CCCCn1c(-c2ccc(N(C)C)cc2)nc2c3ccccc3c3ccccc3c21.[Br-]
Stability [1]: Stable | MIC (Staphylococcus aureus [2]): 0.5 µg/mL | Activity [3]: Non-Toxic | Activity (Staphylococcus aureus [4]): Dose-Dependent Effect | Activity (Staphylococcus aureus [5]): Dose-Dependent Effect | Activity (Staphylococcus aureus [6]): Tde | Activity (Staphylococcus aureus [7]): Dose-Dependent Effect | MIC (Staphylococcus aureus [8]): 2 µg/mL | selectivity ratio [9]: 859 | Activity (Staphylococcus aureus [10]): Active | Activity [11]: Non-Toxic | Activity [12]: Non-Toxic | Activity (Staphylococcus aureus [13]): Active | Activity (Staphylococcus aureus [14]): Active | Activity (Staphylococcus aureus [15]): inactive | Activity [16]: Non-Toxic | Activity [17]: Non-Toxic | fold change (FC) (Staphylococcus aureus [18]): ~5 | Activity [19]: Non-Toxic | MIC (Staphylococcus aureus [20]): 1 µg/mL | survival at 5 mg/kg (Staphylococcus aureus [21]): 0.42% | HC50 at 1 h [22]: 859 µg/mL | Activity [23]: Non-Toxic | Activity (Staphylococcus aureus [24]): 100% | Activity (Staphylococcus aureus [25]): Active | fold change (FC) (Staphylococcus aureus [26]): ~1.9 | Activity [27]: Non-Toxic | MIC (Staphylococcus aureus [28]): 1 µg/mL | Activity [29]: Non-Toxic | Activity (Staphylococcus aureus [30]): 100% | Activity (Staphylococcus aureus [31]): Active | Activity [32]: Non-Toxic | fold change (FC) (Staphylococcus aureus [33]): 128 | survival at 24 h [34]: 100% | Activity (Staphylococcus aureus [35]): Active | Activity [36]: Non-Toxic | Activity (Staphylococcus aureus [37]): 99.34% | Activity (Staphylococcus aureus [38]): Dose-Dependent Effect | Kd [39]: 39.8 µM
